The results in this text go back to patent US4383113A, “Agricultural sulfonamides” (E. I. Du Pont de Nemours and Company, priority 1981, dated 1983).

The structures appear in SMILES notation.

Design in all cases: key: 0 = no effect, 10 = maximum effect; letter = response symbol
The test system of experiment [1] is cocklebur. The experiment can be described thus: Test A pre-emergence. Type of experiment: in vivo, Xanthium spp. As to conditions: 0.4 kg/ha. The source says: (§1) The activity of these compounds was discovered in a number of greenhouse and field tests. The ratings are based on a numerical scale extending from 0=no effect, to 10=maximum effect. The accompanying descriptive symbols have the following meanings:
(§2) Seeds of crabgrass (Digitaria spp.), barnyardgrass (Echinochloa crusgalli), wild oats (Avena fatua), cassia (Cassia tora), morningglory (Ipomoea spp.), cocklebur (Xanthium spp.), sorghum, corn, soybean, rice, wheat and nutsedge tubers (Cyperus rotundus) were planted in a growth medium and treated preemergence with a nonphytotoxic solvent solution of the compounds of Table XII. Other batches of seeds and tubers for all of the foregoing weed and crop plants were planted at the same time as controls. The control plantings were untreated; i.e., neither any compound nor any solvent was applied. At the same time, cotton having five leaves (including cotyledonary ones), bush beans with the third trifoliate leaf expanding, crabgrass with two leaves, barnyardgrass with two leaves, wild oats with two leaves, cassia with three leaves (including cotyledonary ones), morningglory with four leaves (including the cotyledonary ones), cocklebur with four leaves (including the cotyledonary ones), sorghum with four leaves, corn with four leaves, soybean with two cotyledonary leaves, rice with three leaves, wheat with one leaf, and nutsedge with three-five leaves were sprayed with a nonphytotoxic solvent solution of the compounds of Table XII. Other groups of all the same weed and crop plants were sprayed with the same nonphytotoxic solvent so as to provide control plants. Preemergence and postemergence treated plants and controls were maintained in a greenhouse for sixteen days, then all treated plants were compared with their respective controls and rated visually for response to treatment.

The subject of experiment [2] is barnyardgrass. Nature of the experiment: Test A pre-emergence. Type of experiment: in vivo, Echinochloa crusgalli. As to conditions: 0.4 kg/ha.
Excerpt: as §1, §2

Experiment [3] concerns morningglory. Nature of the experiment: Test A pre-emergence. Type of experiment: in vivo, Ipomoea spp. The note with it: 0.4 kg/ha.
Excerpt: as §1, §2

Experiment [4] has as its system soybean. The experiment can be described thus: Test A pre-emergence. Type of experiment: in vivo. As to conditions: 0.4 kg/ha.
Excerpt: as §1, §2

The subject of experiment [5] is corn. Nature of the experiment: Test A pre-emergence. Type of experiment: in vivo.
Excerpt: as §1, §2

Experiment [6] has as its system wheat. The experiment can be described thus: Test A pre-emergence. Type of experiment: in vivo. The note with it: 0.4 kg/ha.
Excerpt: as §1, §2

For experiment [7], the system named is sorghum. The experiment can be described thus: Test A pre-emergence. It counts as in vivo. As to conditions: 0.4 kg/ha.
Excerpt: as §1, §2

The subject of experiment [8] is cassia. The experiment can be described thus: Test A pre-emergence. It counts as in vivo, Cassia tora. As to conditions: 0.4 kg/ha.
Excerpt: as §1, §2

Another experiment concerns wild oats. Nature of the experiment: Test A post-emergence. Type of experiment: in vivo, Avena fatua. As to conditions: 0.4 kg/ha.
Excerpt: as §1, §2

The next experiment has as its system crabgrass. Nature of the experiment: Test A post-emergence. Type of experiment: in vivo, Digitaria spp. The note with it: 0.4 kg/ha.
Excerpt: as §1, §2

For experiment [9], the system named is barnyardgrass. The experiment can be described thus: Test A post-emergence. It counts as in vivo, Echinochloa crusgalli. As to conditions: 0.4 kg/ha.
Excerpt: as §1, §2

A further experiment relates to nutsedge. Nature of the experiment: Test A post-emergence. It counts as in vivo, Cyperus rotundus. As to conditions: 0.4 kg/ha.
Excerpt: as §1, §2

The subject of experiment [10] is cassia. The experiment can be described thus: Test A post-emergence. The note with it: 0.4 kg/ha. Type of experiment: in vivo, Cassia tora.
Excerpt: as §1, §2

Experiment [11] relates to soybean. Nature of the experiment: Test A post-emergence. It counts as in vivo. As to conditions: 0.4 kg/ha.
Excerpt: as §1, §2

Experiment [12] deals with sorghum. The experiment can be described thus: Test A post-emergence. The note with it: 0.4 kg/ha. Type of experiment: in vivo.
Excerpt: as §1, §2

The test system of experiment [13] is morningglory. The experiment can be described thus: Test A post-emergence. As to conditions: 0.4 kg/ha. Type of experiment: in vivo, Ipomoea spp.
Excerpt: as §1, §2

The subject of experiment [14] is cocklebur. Nature of the experiment: Test A post-emergence. It counts as in vivo, Xanthium spp. As to conditions: 0.4 kg/ha.
Excerpt: as §1, §2

Experiment [15] relates to wheat. The experiment can be described thus: Test A post-emergence. It counts as in vivo. As to conditions: 0.4 kg/ha.
Excerpt: as §1, §2

For the next experiment, the system named is bush bean. Nature of the experiment: Test A post-emergence. Type of experiment: in vivo, bush beans. As to conditions: 0.4 kg/ha.
The subject of experiment [16] is corn. Nature of the experiment: Test A post-emergence. It counts as in vivo. As to conditions: 0.4 kg/ha.
Excerpt: as §1, §2

Take `COc1cc(C)nc(NC(=O)NS(=O)(=O)c2ccccc2C(=O)OCCCl)n1` [drawing 488]: the response rating is listed as 9G with cocklebur [1]; 10H with barnyardgrass [2]; 9C in the experiment on morningglory [3]; 9H in the experiment with soybean [4]; 10H in the experiment on corn [5] (0.4 kg/ha); 9H in the experiment with wheat [6]. Besides, the response rating in the experiment on sorghum [7] stood at 10H; in the experiment with cassia [8], 9C.

Consider `COC(=O)c1ccccc1S(=O)(=O)NC(=O)N(C)c1nc(C)cc(C)n1` [drawing 419], for which the response rating with wild oats stood at 6C; with crabgrass, 7G; with barnyardgrass [9] it was 9C; in the experiment with nutsedge it was 7G; in the experiment with cassia [10], 2C; with soybean [11] it was 3C.

As for `COCCc1nc(NC(=O)NS(=O)(=O)c2ccccc2C(=O)OC)nc(OC)n1` [drawing 541], the response rating is reported as 9G in the experiment on cocklebur [1]; 9G with morningglory [3]; 9H in the experiment with soybean [4]; 10H with corn [5] (0.4 kg/ha); 6G with wheat [6]; 9H in the experiment with sorghum [7].

Turning to `COc1cc(C)nc(NC(=O)NS(=O)(=O)c2ccccc2C(=O)NC(C)C)n1` [drawing 463], the response rating in the experiment on wild oats came out at 9C; in the experiment on crabgrass it was 10C; in the experiment with barnyardgrass [9], 9C; in the experiment with nutsedge, 9C; with cassia [10], 9C; in the experiment on soybean [11], 9C. In addition, the values for the response rating with sorghum [12], with morningglory [13] and in the experiment with cocklebur [14] were 9C, 10C and 9C, respectively.

Turning to `COC(=O)c1ccccc1S(=O)(=O)NC(=O)Nc1nc(C)nc(N(C)C)n1` [drawing 539], the response rating in the experiment with cocklebur [1] came out at 9G; with morningglory [3], 9G; with soybean [4] it was 9H; with corn [5] (0.4 kg/ha), 9G; with wheat [6], 9H; with sorghum [7] it was 9H. This compound registered a response rating with cassia [8] of 8G.

Consider `COc1cc(C)nc(NC(=O)NS(=O)(=O)c2ccccc2C(=O)N(C)C)n1` [drawing 532], for which the response rating with cocklebur [1] came to 9G; in the experiment on barnyardgrass [2], 9H; with morningglory [3], 9G; in the experiment with soybean [4], 9H; in the experiment with corn [5] (0.4 kg/ha), 9H; with wheat [6] it was 9H. Also, the response rating was 9H with sorghum [7] and 9G with cassia [8].

Consider `Cc1cc(C)nc(NC(=O)NS(=O)(=O)c2ccccc2C(=O)O)n1` [drawing 510], for which the response rating with corn [5] (2 kg/ha) is 3G.

Turning to `COc1cc(C)nc(NC(=O)NS(=O)(=O)c2ccccc2C(=O)SCc2ccccc2)n1` [drawing 542], the response rating worked out at 8G with cocklebur [1]; 9G with morningglory [3]; 9H in the experiment with soybean [4]; 9G in the experiment on corn [5] (0.4 kg/ha); 9H in the experiment with wheat [6]; 9H with sorghum [7]. The compound further came in with a response rating in the experiment on cassia [8] of 9G.

As for `COc1cc(C)nc(NC(=O)NS(=O)(=O)c2ccccc2C(=O)OCCOc2ccccc2)n1` [drawing 528], the response rating amounted to 9G with cocklebur [1]; 9C in the experiment with morningglory [3]; 9H with soybean [4]; 9G in the experiment with corn [5] (0.4 kg/ha); 9H in the experiment on wheat [6].

For `COc1nc(C)nc(NC(=O)NS(=O)(=O)c2ccccc2C(=O)OC2CCCC2)n1` [drawing 445], the response rating came out at 1C in the experiment on wild oats; 1C in the experiment with crabgrass; 7G with nutsedge; 9C in the experiment with soybean [11]; 1C with wheat [15]; 8G in the experiment on sorghum [12]. For the same compound, the response rating with morningglory [13] was 10C; in the experiment with bush bean it was 8C; in the experiment on cocklebur [14], 9C.

Consider `COCCCOc1cc(C)nc(NC(=O)NS(=O)(=O)c2ccccc2C(=O)OC)n1` [drawing 537], for which the response rating is 9G with cocklebur [1]; 9H with soybean [4]; 9H with corn [5] (0.4 kg/ha); 9H in the experiment on wheat [6]; 9H with sorghum [7]; 8G with cassia [8].

As to `COc1cc(C)nc(NC(=O)NS(=O)(=O)c2ccccc2C(=O)OC2CCOC2)n1` (centres unmarked) [drawing 446], the response rating is on record as 7G in the experiment with wild oats; 9C in the experiment on barnyardgrass [9]; 9C in the experiment on soybean [11]; 7C in the experiment with wheat [15]; 9C in the experiment with sorghum [12]; 9C with morningglory [13]. For the same compound, the response rating in the experiment on bush bean worked out at 9C.

`COc1cc(C)nc(NC(=O)NS(=O)(=O)c2ccccc2C(=O)SC2CCCCC2)n1` [drawing 543]: the response rating in the experiment on cocklebur [1] turned out to be 9G; in the experiment on barnyardgrass [2] it was 9H; with morningglory [3], 9H; in the experiment on soybean [4] it was 9H; with corn [5] (0.4 kg/ha) it was 9G; in the experiment on wheat [6] it was 9H. In addition, the response rating in the experiment with sorghum [7] is reported as 9H; in the experiment with cassia [8], 9G.

In the case of `CCOCCSc1cc(C)nc(NC(=O)NS(=O)(=O)c2ccccc2C(=O)OC)n1` [drawing 536], the response rating with morningglory [3] came out at 9G; in the experiment with soybean [4], 9H; with corn [5] (0.4 kg/ha) it was 9G; in the experiment with sorghum [7], 9H.

For `COC(=O)c1ccccc1S(=O)(=O)NC(=O)Nc1nc(OC)cc(OC(C)C(=O)OC)n1` (centres unmarked) [drawing 535], the response rating in the experiment with soybean [4] worked out at 9H; in the experiment on corn [5] (0.4 kg/ha), 10H; in the experiment with sorghum [7], 10H.

Consider `COc1cc(C)nc(NC(=O)NS(=O)(=O)c2ccccc2C(=O)OC(C)CCl)n1` (centres unmarked) [drawing 545], for which the response rating was determined as 9G in the experiment on cocklebur [1]; 9G in the experiment on morningglory [3]; 9H in the experiment with soybean [4]; 9H with corn [5] (0.4 kg/ha); 9H with wheat [6]; 9G in the experiment with cassia [8].

As for `CCCC(OC(=O)c1ccccc1S(=O)(=O)NC(=O)Nc1nc(C)nc(OC)n1)C(C)C` (centres unmarked) [drawing 458], the response rating is 3C in the experiment on crabgrass; 9C in the experiment on barnyardgrass [9]; 9C in the experiment on cassia [10]; 9C in the experiment with soybean [11]; 9C in the experiment with corn [16]; 10C in the experiment with morningglory [13]. The response rating in the experiment on bush bean is 9C; with cocklebur [14], 10C.

With `CCC(C)OC(=O)c1ccccc1S(=O)(=O)NC(=O)Nc1nc(OC)cc(OC)n1` (centres unmarked) [drawing 423], the response rating in the experiment with wild oats came out at 2C; in the experiment on crabgrass it was 2A; with barnyardgrass [9], 9C; in the experiment on nutsedge, 7G; in the experiment on soybean [11], 9C; in the experiment on corn [16] it was 9H. For the same compound, the response rating worked out at 1C with wheat [15] and 9C in the experiment with morningglory [13].
